Measurements from the NIST ThermoML archive (doi:10.1021/je1000796).

Columns and labels:
[1] = 101 kPa, Liquid; for viscosity: Capillary tube (Ostwald / Ubbelohde) method
[2] = mn = molality of the nth substance listed, in mol/kg; details: 101 kPa, Liquid, m2 = 0; for viscosity: Capillary tube (Ostwald / Ubbelohde) method

CO [methanol]
[1]
Details	mass density [kg/m3]	viscosity [mPa·s]
278.15 K	803	0.7418
283.15 K	798.9	0.689
288.15 K	795.2	0.641
293.15 K	792.1	0.599
298.15 K	787.9	0.5585
303.15 K	783.7	0.5199
308.15 K	779.5	0.4857
313.15 K	775.2	0.4559

CO [methanol] + COC(=O)[C@H](c1ccccc1Cl)N1CCc2sccc2C1.O=S(=O)(O)O
[2]
Details	mass density [kg/m3]	viscosity [mPa·s]
278.15 K	803	0.7418
283.15 K	798.9	0.689
288.15 K	795.2	0.641
293.15 K	792.1	0.599
298.15 K	787.9	0.5585
303.15 K	783.7	0.5199
308.15 K	779.5	0.4857
313.15 K	775.2	0.4559

CCO [ethanol] + COC(=O)[C@H](c1ccccc1Cl)N1CCc2sccc2C1.O=S(=O)(O)O
[2]
Details	mass density [kg/m3]	viscosity [mPa·s]
278.15 K	800.5	1.629
283.15 K	797.8	1.474
288.15 K	793.9	1.333
293.15 K	790	1.21
298.15 K	785.7	1.099
303.15 K	780.9	0.9971
308.15 K	778	0.9083
313.15 K	773.3	0.828

CCO [ethanol]
[1]
Details	mass density [kg/m3]	viscosity [mPa·s]
278.15 K	800.5	1.629
283.15 K	797.8	1.474
288.15 K	793.9	1.333
293.15 K	790	1.21
298.15 K	785.7	1.099
303.15 K	780.9	0.9971
308.15 K	778	0.9083
313.15 K	773.3	0.828
